For 25 compounds, IC50 results are on record in patent US11247990B1, “Bicyclic fused pyridine compounds as inhibitors of TAM kinases” (ARRAY BIOPHARMA INC., priority 2017, dated 2022).

Assay [1] has as its target His-tagged recombinant human MER cytoplasmic domain (Homo sapiens (Human), UniProt Q12866). Put plainly: MER Enzyme Assay (LanthaScreen Eu Kinase Binding, TR-FRET). To be noted: averaged IC50. Here is the method:
Compounds of Formula I were screened for their ability to inhibit MER kinase using Invitrogen's LanthaScreen™ Eu Kinase Binding technology. […] After a 60-minute incubation at 22° C., the reaction was measured using a PerkinElmer EnVision multimode plate reader via TR-FRET dual wavelength detection, and the percent of control (POC) was calculated using a ratiometric emission factor. […] The POC values are fit to a 4 parameter logistic curve and the IC50 value is point where the curve crosses 50 POC.
For orientation: TR-FRET usually uses a lanthanide donor and a delayed reading to cut background.

Assay [2] addresses His-tagged recombinant human AXL cytoplasmic domain (Homo sapiens (Human), UniProt P30530). Put plainly: AXL Enzyme Assay (LanthaScreen Eu Kinase Binding, TR-FRET). To be noted: averaged IC50. The method, then:
Compounds of Formula I were screened for their ability to inhibit AXL kinase using Invitrogen's LanthaScreen™ Eu Kinase Binding technology. […] After a 60-minute incubation at 22° C., the reaction was measured using a PerkinElmer EnVision multimode plate reader via TR-FRET dual wavelength detection, and the percent of control (POC) was calculated using a ratiometric emission factor. […] The POC values are fit to a 4 parameter logistic curve and the IC50 value is point where the curve crosses 50 POC.

His-tagged recombinant human AXL cytoplasmic domain, sequence (P30530 473-894): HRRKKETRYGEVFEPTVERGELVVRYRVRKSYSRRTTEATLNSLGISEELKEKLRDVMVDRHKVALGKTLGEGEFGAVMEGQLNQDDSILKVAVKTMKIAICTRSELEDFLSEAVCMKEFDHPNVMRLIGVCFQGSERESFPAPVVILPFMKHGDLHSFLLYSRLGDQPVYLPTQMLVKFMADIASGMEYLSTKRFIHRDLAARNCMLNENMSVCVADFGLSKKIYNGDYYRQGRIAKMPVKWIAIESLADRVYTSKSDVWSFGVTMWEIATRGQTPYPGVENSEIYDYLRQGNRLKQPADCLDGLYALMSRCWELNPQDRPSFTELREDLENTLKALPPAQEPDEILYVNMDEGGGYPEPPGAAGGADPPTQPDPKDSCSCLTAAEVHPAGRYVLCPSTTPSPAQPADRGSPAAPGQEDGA
His-tagged recombinant human MER cytoplasmic domain, sequence (Q12866 527-999): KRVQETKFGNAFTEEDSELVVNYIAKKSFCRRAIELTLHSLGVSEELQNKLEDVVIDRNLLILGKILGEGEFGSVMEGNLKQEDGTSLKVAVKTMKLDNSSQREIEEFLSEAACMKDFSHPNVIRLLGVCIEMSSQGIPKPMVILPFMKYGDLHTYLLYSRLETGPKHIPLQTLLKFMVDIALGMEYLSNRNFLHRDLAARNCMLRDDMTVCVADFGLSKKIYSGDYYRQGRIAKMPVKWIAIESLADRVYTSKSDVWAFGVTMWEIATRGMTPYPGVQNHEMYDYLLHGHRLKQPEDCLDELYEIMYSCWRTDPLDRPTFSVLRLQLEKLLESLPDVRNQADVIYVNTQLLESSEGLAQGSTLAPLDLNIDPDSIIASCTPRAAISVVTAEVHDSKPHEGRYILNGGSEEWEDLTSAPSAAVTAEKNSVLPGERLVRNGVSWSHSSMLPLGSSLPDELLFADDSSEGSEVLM

Take `CNc1cc2c(cn1)c(-c1cnn(C)c1)nn2[C@H]1CC[C@@H](Oc2ccccc2Cl)CC1` [Example 360, 1-((1s,4s)-4-(2-chlorophenoxy)cyclohexyl)-N-methyl-3-(1-methyl-1H-pyrazol-4-yl)-1H-pyrazolo[4,3-c]pyridin-6-amine]: the IC50 in assay [1] and in assay [2] was below 0.01 µM throughout.

`CNc1cc2c(cn1)c(-c1cnn(C)c1)nn2[C@H]1CC[C@@H](Oc2cccnc2F)CC1` [Example 146, 1-((1s,4s)-4-((2-fluoropyridin-3-yl)oxy)cyclohexyl)-N-methyl-3-(1-methyl-1H-pyrazol-4-yl)-1H-pyrazolo[4,3-c]pyridin-6-amine]: the IC50 in assay [1] and in assay [2] was below 0.01 µM throughout.

With `CCNc1cc2c(cn1)c(C1CCOCC1)nn2[C@H]1CC[C@@H](Oc2nccc(C(F)(F)F)c2F)CC1` [Example 317, N-ethyl-1-((1s,4s)-4-((3-fluoro-4-(trifluoromethyl)pyridin-2-yl)oxy)cyclohexyl)-3-(tetrahydro-2H-pyran-4-yl)-1H-pyrazolo[4,3-c]pyridin-6-amine], the IC50 in assay [1] and in assay [2] was below 0.01 µM in each case.

`CNc1cc2c(cn1)c(-c1cnn(C)c1)nn2[C@H]1CC[C@@H](Oc2ccccc2F)CC1` [Example 353, 1-((1s,4s)-4-(2-fluorophenoxy)cyclohexyl)-N-methyl-3-(1-methyl-1H-pyrazol-4-yl)-1H-pyrazolo[4,3-c]pyridin-6-amine]: the IC50 in assay [1] and in assay [2] was below 0.01 µM in each case.

Regarding `CNc1cc2c(cn1)c(-c1cnn(C)c1)nn2[C@H]1CC[C@@H](Oc2cc(C(F)(F)F)ccn2)CC1` [Example 170, N-methyl-3-(1-methyl-1H-pyrazol-4-yl)-1-((1s,4s)-4-((4-(trifluoromethyl)pyridin-2-yl)oxy)cyclohexyl)-1H-pyrazolo[4,3-c]pyridin-6-amine], the IC50 in assay [1] and in assay [2] was below 0.01 µM in each case.

As to `CNc1cc2c(cn1)c(-c1cnn(C)c1)nn2[C@H]1CC[C@@H](Oc2cccc(F)c2F)CC1` [Example 357, 1-((1s,4s)-4-(2,3-difluorophenoxy)cyclohexyl)-N-methyl-3-(1-methyl-1H-pyrazol-4-yl)-1H-pyrazolo[4,3-c]pyridin-6-amine], the IC50 in assay [1] and in assay [2] was below 0.01 µM throughout.

For the compound `CNc1cc2c(cn1)c(-c1cnn(C)c1)nn2[C@H]1CC[C@@H](Oc2ncccc2F)CC1` [Example 122, 1-((1s,4s)-4-((3-fluoropyridin-2-yl)oxy)cyclohexyl)-N-methyl-3-(1-methyl-1H-pyrazol-4-yl)-1H-pyrazolo[4,3-c]pyridin-6-amine], the IC50 in assay [1] and in assay [2] was below 0.01 µM throughout.

On to `CNc1cc2c(cn1)c(-c1cnn(C)c1)nn2[C@H]1CC[C@@H](Oc2cc(F)ccc2F)CC1` [Example 362, 1-((1s,4s)-4-(2,5-difluorophenoxy)cyclohexyl)-N-methyl-3-(1-methyl-1H-pyrazol-4-yl)-1H-pyrazolo[4,3-c]pyridin-6-amine], for which the IC50 in assay [1] and in assay [2] was below 0.01 µM throughout.

Take `CNc1cc2c(cn1)c(-c1cnn(C)c1)nn2[C@H]1CC[C@@H](Oc2cccnc2C)CC1` [Example 135, N-methyl-3-(1-methyl-1H-pyrazol-4-yl)-1-((1s,4s)-4-((2-methylpyridin-3-yl)oxy)cyclohexyl)-1H-pyrazolo[4,3-c]pyridin-6-amine]: the IC50 in assay [1] and in assay [2] was below 0.01 µM in each case.

For `CNc1cc2c(cn1)c(-c1cnn(C)c1)nn2[C@H]1CC[C@@H](Oc2ccccc2)CC1` [Example 371, N-methyl-3-(1-methyl-1H-pyrazol-4-yl)-1-((1s,4s)-4-phenoxycyclohexyl)-1H-pyrazolo[4,3-c]pyridin-6-amine], the IC50 in assay [1] and in assay [2] was below 0.01 µM throughout.

On to `CCNc1cc2c(cn1)c(-c1cnc(=O)n(C)c1)nn2C1CCC(Oc2nccc(C(F)(F)F)c2F)CC1` (centres unmarked) [Example 256, 5-(6-(ethylamino)-1-((1s,4s)-4-((3-fluoro-4-(trifluoromethyl)pyridin-2-yl)oxy)cyclohexyl)-1H-pyrazolo[4,3-c]pyridin-3-yl)-1-methylpyrimidin-2(1H)-one], for which the IC50 in assay [1] and in assay [2] was below 0.01 µM in each case.

Regarding `CCNc1cc2c(cn1)c(C1CCOC1)nn2[C@H]1CC[C@@H](Oc2nccc(C(F)(F)F)c2F)CC1` (some centres unmarked) [Example 323, N-ethyl-1-((1s,4s)-4-((3-fluoro-4-(trifluoromethyl)pyridin-2-yl)oxy)cyclohexyl)-3-(tetrahydrofuran-3-yl)-1H-pyrazolo[4,3-c]pyridin-6-amine], the IC50 in assay [1] and in assay [2] was below 0.01 µM each time.

Take `CNc1cc2c(cn1)c(-c1cnn(C)c1)nn2[C@H]1CC[C@@H](Oc2ccccc2C#N)CC1` [Example 363, 2-(((1s,4s)-4-(3-(1-methyl-1H-pyrazol-4-yl)-6-(methylamino)-1H-pyrazolo[4,3-c]pyridin-1-yl)cyclohexyl)oxy)benzonitrile]: the concentration for half-maximal inhibition (IC50) in assay [1] and in assay [2] was below 0.01 µM in each case.

For the compound `CNc1cc2c(cn1)c(-c1ccc(CN3CCN(C)CC3)cc1)nn2[C@H]1CC[C@@H](Oc2cnn(C)c2)CC1` [Example 232, N-methyl-1-((1s,4s)-4-((1-methyl-1H-pyrazol-4-yl)oxy)cyclohexyl)-3-(4-((4-methylpiperazin-1-yl)methyl)phenyl)-1H-pyrazolo[4,3-c]pyridin-6-amine], the IC50 in assay [1] and in assay [2] was below 0.01 µM each time.

Consider `CNc1cc2c(cn1)c(-c1cnn(C(C)(C)C#N)c1)nn2[C@H]1CC[C@@H](Oc2ccccc2F)CC1` [Example 394, 2-(4-(1-((1s,4s)-4-(2-fluorophenoxy)cyclohexyl)-6-(methylamino)-1H-pyrazolo[4,3-c]pyridin-3-yl)-1H-pyrazol-1-yl)-2-methylpropanenitrile], for which the IC50 in assay [1] and in assay [2] was below 0.01 µM each time.

As to `CNc1cc2c(cn1)c(-c1cnn(C)c1)nn2[C@H]1CC[C@@H](Oc2cccc(Cl)c2)CC1` [Example 361, 1-((1s,4s)-4-(3-chlorophenoxy)cyclohexyl)-N-methyl-3-(1-methyl-1H-pyrazol-4-yl)-1H-pyrazolo[4,3-c]pyridin-6-amine], the IC50 in assay [1] and in assay [2] was below 0.01 µM in each case.

With `CNc1cc2c(cn1)c(-c1cnn(C)c1)nn2[C@H]1CC[C@@H](Oc2ccc(F)cc2)CC1` [Example 355, 1-((1s,4s)-4-(4-fluorophenoxy)cyclohexyl)-N-methyl-3-(1-methyl-1H-pyrazol-4-yl)-1H-pyrazolo[4,3-c]pyridin-6-amine], the IC50 in assay [1] and in assay [2] was below 0.01 µM throughout.

Regarding `CNc1cc2c(cn1)c(-c1cnn(CCN3CCOCC3)c1)nn2[C@H]1CC[C@@H](Oc2ccccc2F)CC1` [Example 397, 1-((1s,4s)-4-(2-fIuorophenoxy)cyclohexyl)-N-methyl-3-(1-(2-morpholinoethyl)-1H-pyrazol-4-yl)-1H-pyrazolo[4,3-c]pyridin-6-amine], the IC50 in assay [1] and in assay [2] was below 0.01 µM each time.

Consider `CCNc1cc2c(cn1)c(-c1cnn(C)c1)nn2[C@H]1CC[C@@H](Oc2ccc(C(=O)NC)cc2F)CC1` [Example 460, 4-(((1s,45)-4-(6-(ethylamino)-3-(1-methyl-1H-pyrazol-4-yl)-1H-pyrazolo[4,3-c]pyridin-1-yl)cyclohexyl)oxy)-3-fluoro-N-methylbenzamide], for which the IC50 in assay [2] is below 0.01 µM.

Turning to `CNc1cc2c(cn1)c(-c1cnn(C)c1)nn2[C@H]1CC[C@@H](Oc2ccc(F)cc2CN(C)C)CC1` [Example 370, 1-((1s,4s)-4-(2-((dimethylamino)methyl)-4-fluorophenoxy)cyclohexyl)-N-methyl-3-(1-methyl-1H-pyrazol-4-yl)-1H-pyrazolo[4,3-c]pyridin-6-amine], the IC50 in assay [2] was below 0.01 µM.

Consider `CNc1cc2c(cn1)c(-c1ccc(CN3CCN(C)CC3)cc1)nn2[C@H]1CC[C@@H](Oc2ccc(=O)n(C)n2)CC1` [Example 27, 2-methyl-6-(((1s,4s)-4-(6-(methylamino)-3-(4-((4-methylpiperazin-1-yl)methyl)phenyl)-1H-pyrazolo[4,3-c]pyridin-1-yl)cyclohexyl)oxy)pyridazin-3(2H)-one], for which the IC50 in assay [1] and in assay [2] was below 0.01 µM throughout.

For `CCNc1cc2c(cn1)c(-c1cn(C)c(=O)cn1)nn2[C@H]1CC[C@@H](Oc2nccc(C(F)(F)F)c2F)CC1` [Example 257, 5-(6-(ethylamino)-1-((1s,4s)-4-((3-fluoro-4-(trifluoromethyl)pyridin-2-yl)oxy)cyclohexyl)-1H-pyrazolo[4,3-c]pyridin-3-yl)-1-methylpyrazin-2(1H)-one], the IC50 in assay [1] and in assay [2] was below 0.01 µM throughout.

In the case of `CCc1ncccc1O[C@H]1CC[C@@H](n2nc(-c3cnn(C)c3)c3cnc(NC)cc32)CC1` [Example 145, 1-((1s,4s)-4-((2-ethylpyridin-3-yl)oxy)cyclohexyl)-N-methyl-3-(1-methyl-1H-pyrazol-4-yl)-1H-pyrazolo[4,3-c]pyridin-6-amine], the IC50 in assay [1] and in assay [2] was below 0.01 µM each time.

For `CNc1cc2c(cn1)n(-c1cnn(C)c1)nc2[C@H]1CC[C@@H](Oc2ccccc2F)CC1` [Example 479, 3-((1s,4s)-4-(2-fluorophenoxy)cyclohexyl)-N-methyl-1-(1-methyl-1H-pyrazol-4-yl)-1H-pyrazolo[3,4-c]pyridin-5-amine], the IC50 in assay [1] and in assay [2] was below 0.01 µM each time.

In the case of `Cn1cc(-c2nn([C@H]3CC[C@@H](Oc4cccc(F)c4F)CC3)c3cc(Nc4ccccc4)ncc23)cn1` [Example 486, 1-((1s,4s)-4-(2,3-difluorophenoxy)cyclohexyl)-3-(1-methyl-1H-pyrazol-4-yl)-N-phenyl-1H-pyrazolo[4,3-c]pyridin-6-amine], the IC50 in assay [2] fell in the range of 1 to 10 µM.

Broadly, the IC50 is the concentration that inhibits the measured activity by half.
